Assay: Pharmacokinetics in male cynomolgus monkeys
Assay type: in vivo
Conditions: cynomolgus monkey, plasma
Procedure: Male Sprague-Dawley (SD) rats (300–350 g) were fasted overnight, and three per group received BMS-869780 either as an intravenous (IV) infusion in PEG400 : ethanol (90 : 10 w/w) at 1 mg/kg over 5 min via the jugular vein or as nanosuspension (d50 ca. 300 nm) by oral gavage at 5 mg/kg in Povidone K-30 : sodium lauryl sulfate : water (2.5 : 0.12 : 97.38 w/w/w/w). For the IV infusion, serial blood samples were obtained before dose and at 0.17, 0.25, 0.5, 0.75, 1, 2, 4, 6, 8, and 24 hours after dose. For the PO nanosuspension, serial blood samples were obtained before dose and at 0.25, 0.5, 0.75, 1, 2, 4, 6, 8, and 24 h after dose. Blood samples, ~0.3 mL, for all studies were collected from the jugular vein into K3EDTA-containing tubes and then centrifuged at 4°C (1500–2000 ×g) to obtain plasma, which was stored at −20°C until analysis by LC/MS/MS. In male beagle dogs, the PK of BMS-869780 was evaluated in a cross-over study design with a one-week washout between treatments. Dogs were fasted overnight, and three animals (9.5 to 10.7 kg) received BMS-869780 by IV infusion at 1 mg/kg over 5 minutes in PEG400 : ethanol (90 : 10 w/w) or as nanosuspension (d50 ca. 300 nm) by oral gavage at 5 mg/kg in Povidone K-30 : sodium lauryl sulfate : water (2.5 : 0.12 : 97.38 w/w/w/w). Serial blood samples (~0.3 mL) were collected from a saphenous vein into K3EDTA-containing tubes before dose and at 0.083, 0.17, 0.25, 0.5, 0.75, 1, 2, 4, 6, 8, and 24 hours after IV dose, and 0.25, 0.5, 0.75, 1, 2, 4, 6, 8, and 24 hours after oral dose, followed by centrifugation at 4°C (1500 to 2000 ×g) to obtain plasma. Samples were stored at −20°C until analysis of BMS-869780 levels by LC-MS/MS. In male cynomolgus monkeys, the PK of BMS-869780 was evaluated in a cross-over study design with a 1-week washout between treatments. Following an overnight fast, three animals (4.5 to 8 kg) received BMS-869780 by IV infusion via a femoral vein at 1 mg/kg over 10 minutes in PEG400 : ethanol (90 : 10), or by oral gavage at 5 mg/kg in Povidone K-30 : sodium lauryl sulfate : water (2.5 : 0.12 : 97.38). Serial blood samples, ~0.3 mL, were collected from a femoral artery into K3EDTA-containing tubes before dose and at 0.083, 0.17, 0.25, 0.5, 0.75, 1, 2, 4, 6, 8, and 24 hours after IV dose, and 0.25, 0.5, 0.75, 1, 2, 4, 6, 8, and 24 hours after oral dose, followed by centrifugation at 4°C (1500 to 2000 ×g) to obtain plasma. Samples were stored at −20°C until analysis of BMS-869780 levels by LC-MS/MS. The PK parameters of BMS-869780 were obtained by noncompartmental analysis of plasma concentration versus time data (WinNonlin software, Version 5.0; Pharsight Corporation, Mountain View, CA). The peak concentration (C max) and time for C max (T max) were recorded directly from experimental observations. The area under the curve from time zero to the last sampling time (AUC^0-T) and the area under the curve from time zero to infinity (AUC^INF) were calculated using a combination of linear and log trapezoidal summations. The total plasma clearance (CLTp), steady-state volume of distribution (Vss), apparent elimination half-life (T 1/2), and mean residence time (MRT) were estimated after IV administration. The absolute oral bioavailability (F) was estimated as the ratio of dose-normalized AUC values following oral and IV doses.
Figure 9 Pharmacokinetics (PK) of BMS-869780 across species for prediction of human PK. Rats, dogs, and cynomolgus monkeys were dosed with BMS-869780 intravenously (IV ▲) at 1 mg/kg or oral nanosuspension (PO ●) at 5 mg/kg. Plasma concentrations of BMS-869780 were determined for up to 24 hours after the dose. (a) Rat. (b) Dog. (c) Cynomolgus monkey.

COc1cc(Nc2nc3n(n2)CCCC[C@H]3c2ccc(F)cc2)ccc1-n1cnc(Cl)c1 [BMS-869780]
AUC(0-t) (IV 1 mg/kg): 2.63 ± 0.926 µM·h
MRT (IV 1 mg/kg): 3.8 ± 0.7 h
clearance (IV 1 mg/kg): 15.2 ± 5.9 mL/min/kg
half-life (IV 1 mg/kg): 4 ± 0.5 h
Vd (IV 1 mg/kg, read-out: Vss): 3.7 ± 1.3 L/kg
AUC(0-t) (PO suspension 5 mg/kg): 2.03 ± 1.04 µM·h
Cmax (PO suspension 5 mg/kg): 219 ± 94 nM
Tmax (PO suspension 5 mg/kg): 2 h
bioavailability (PO suspension 5 mg/kg): 16%

— paper PMC4109680, “Identification and Preclinical Pharmacology of the γ-Secretase Modulator BMS-869780” (International Journal of Alzheimer's Disease, 2014)
